Assay results taken from the OligoGym collection.
HELM strings list units from the 5' end as sugar, base in round brackets, then linkage (d deoxyribose, r ribose, m 2'-O-methyl, p phosphodiester). Strings are as the collection lists them; they lack the last nucleoside at the 3' end of the tested compound. [moe] = 2'-O-(2-methoxyethyl) (MOE); [sp] = phosphorothioate linkage; [m5C] = 5-methylcytosine

Each substance was assayed against GFAP (assay: mouse, dose not given). Conditions: ASO.

“RNA1{[moe]([m5C])[sp].[moe](A)p.[moe]([m5C])p.[moe](A)p.[moe](T)p.d(T)[sp].d([m5C])[sp].d(A)[sp].d([m5C])[sp].d(T)[sp].d(A)[sp].d(A)[sp].d(T)[sp].d(A)[sp].d(T)[sp].[moe](T)p.[moe](T)p.[moe](A)[sp].[moe](A)}$$$$ (last 3' nucleoside missing)” and “RNA1{[moe]([m5C])[sp].[moe](A)p.[moe]([m5C])p.[moe](A)p.d(T)[sp].d(T)[sp].d([m5C])[sp].d(A)[sp].d([m5C])[sp].d(T)[sp].d(A)[sp].d(A)[sp].d(T)[sp].d(A)[sp].[moe](T)p.[moe](T)p.[moe](T)p.[moe](A)[sp].[moe](A)}$$$$ (last 3' nucleoside missing)” are the same in 3 h FOB score: 0 score 0-7 for the first, 0 score 0-7 for the second.

“RNA1{[moe]([m5C])[sp].[moe](A)p.[moe]([m5C])p.[moe](G)p.[moe](T)p.[moe]([m5C])p.d(A)[sp].d([m5C])[sp].d(A)[sp].d(T)[sp].d(T)[sp].d([m5C])[sp].d(A)[sp].d([m5C])[sp].d(T)[sp].d(A)[sp].[moe](A)p.[moe](T)[sp].[moe](A)}$$$$ (last 3' nucleoside missing)” and “RNA1{[moe]([m5C])[sp].[moe](A)p.[moe]([m5C])p.[moe](G)p.[moe](T)p.d([m5C])[sp].d(A)[sp].d([m5C])[sp].d(A)[sp].d(T)[sp].d(T)[sp].d([m5C])[sp].d(A)[sp].d([m5C])[sp].d(T)[sp].[moe](A)p.[moe](A)p.[moe](T)[sp].[moe](A)}$$$$ (last 3' nucleoside missing)” are the same in 3 h FOB score: 0 score 0-7 for the first, 0 score 0-7 for the second.

Compared with “RNA1{[moe]([m5C])[sp].[moe](A)p.[moe]([m5C])p.[moe](G)p.d(T)[sp].d([m5C])[sp].d(A)[sp].d([m5C])[sp].d(A)[sp].d(T)[sp].d(T)[sp].d([m5C])[sp].d(A)[sp].d([m5C])[sp].[moe](T)p.[moe](A)p.[moe](A)p.[moe](T)[sp].[moe](A)}$$$$ (last 3' nucleoside missing)”, “RNA1{[moe]([m5C])[sp].[moe](G)p.[moe](G)p.[moe](A)p.[moe](T)[sp].d([m5C])[sp].d(T)[sp].d([m5C])[sp].d(T)[sp].d(T)[sp].d(T)[sp].d([m5C])[sp].d(A)[sp].d(G)[sp].d(G)[sp].[moe](G)p.[moe]([m5C])p.[moe](T)[sp].[moe](G)}$$$$ (last 3' nucleoside missing)” is higher in 3 h FOB score: 0 score 0-7 for the first, 5 score 0-7 for the second.

Going from “RNA1{[moe]([m5C])[sp].[moe](G)p.[moe](G)p.[moe]([m5C])p.[moe](T)[sp].d([m5C])[sp].d(T)[sp].d([m5C])[sp].d(T)[sp].d([m5C])[sp].d(A)[sp].d(T)[sp].d([m5C])[sp].d(T)[sp].d(G)[sp].[moe](T)p.[moe]([m5C])p.[moe](A)[sp].[moe](A)}$$$$ (last 3' nucleoside missing)” to “RNA1{[moe]([m5C])[sp].[moe](G)p.[moe](T)p.[moe](A)p.[moe](T)[sp].d(T)[sp].d(G)[sp].d(T)[sp].d(G)[sp].d(A)[sp].d(G)[sp].d(G)[sp].d([m5C])[sp].d(T)[sp].d(T)[sp].[moe](T)p.[moe](T)p.[moe](G)[sp].[moe](A)}$$$$ (last 3' nucleoside missing)”, the 3 h FOB score rises from 2 score 0-7 to 7 score 0-7.

First: RNA1{[moe]([m5C])[sp].[moe](G)p.[moe](T)p.[moe](G)p.[moe](T)[sp].d([m5C])[sp].d(A)[sp].d(G)[sp].d([m5C])[sp].d([m5C])[sp].d([m5C])[sp].d(T)[sp].d(G)[sp].d(A)[sp].d(G)[sp].[moe]([m5C])p.[moe](A)p.[moe]([m5C])[sp].[moe]([m5C])}$$$$ (last 3' nucleoside missing)
Second: RNA1{[moe]([m5C])[sp].[moe](G)p.[moe](T)p.[moe]([m5C])p.[moe](A)[sp].d([m5C])[sp].d(A)[sp].d(T)[sp].d(T)[sp].d([m5C])[sp].d(A)[sp].d([m5C])[sp].d(T)[sp].[moe](A)p.[moe](A)p.[moe](T)[sp].[moe](A)}$$$$ (last 3' nucleoside missing)
The 3 h FOB score of the first is higher: 2 score 0-7 for the first, 0 score 0-7 for the second.

“RNA1{[moe]([m5C])[sp].[moe](G)p.[moe](T)p.[moe]([m5C])p.[moe](A)p.[moe]([m5C])p.d(A)[sp].d(T)[sp].d(T)[sp].d([m5C])[sp].d(A)[sp].d([m5C])[sp].d(T)[sp].d(A)[sp].d(A)[sp].d(T)[sp].[moe](A)p.[moe](T)[sp].[moe](T)}$$$$ (last 3' nucleoside missing)” and “RNA1{[moe]([m5C])[sp].[moe](G)p.[moe](T)p.[moe]([m5C])p.[moe](A)p.d([m5C])[sp].d(A)[sp].d(T)[sp].d(T)[sp].d([m5C])[sp].d(A)[sp].d([m5C])[sp].d(T)[sp].d(A)[sp].d(A)[sp].[moe](T)p.[moe](A)p.[moe](T)[sp].[moe](T)}$$$$ (last 3' nucleoside missing)” are the same in 3 h FOB score: 0 score 0-7 for the first, 0 score 0-7 for the second.

Compared with “RNA1{[moe]([m5C])[sp].[moe](G)p.[moe](T)p.[moe]([m5C])p.d(A)[sp].d([m5C])[sp].d(A)[sp].d(T)[sp].d(T)[sp].d([m5C])[sp].d(A)[sp].d([m5C])[sp].d(T)[sp].d(A)[sp].[moe](A)p.[moe](T)p.[moe](A)p.[moe](T)[sp].[moe](T)}$$$$ (last 3' nucleoside missing)”, “RNA1{[moe]([m5C])[sp].[moe](G)p.[moe]([m5C])p.[moe](A)p.[moe](G)[sp].d([m5C])[sp].d(A)[sp].d(T)[sp].d(T)[sp].d(T)[sp].d(G)[sp].d(T)[sp].d([m5C])[sp].d(T)[sp].d(T)[sp].[moe](T)p.[moe](A)p.[moe](T)[sp].[moe](T)}$$$$ (last 3' nucleoside missing)” is higher in 3 h FOB score: 0 score 0-7 for the first, 5 score 0-7 for the second.

First: RNA1{[moe]([m5C])[sp].[moe](T)p.[moe](A)p.[moe](G)p.[moe](T)p.[moe]([m5C])p.d(A)[sp].d(G)[sp].d([m5C])[sp].d([m5C])[sp].d(T)[sp].d(G)[sp].d(G)[sp].d(T)[sp].d(T)[sp].d(A)[sp].[moe](G)p.[moe]([m5C])[sp].[moe]([m5C])}$$$$ (last 3' nucleoside missing)
Second: RNA1{[moe]([m5C])[sp].[moe](T)p.[moe](A)p.[moe](G)p.[moe](T)p.d([m5C])[sp].d(A)[sp].d(G)[sp].d([m5C])[sp].d([m5C])[sp].d(T)[sp].d(G)[sp].d(G)[sp].d(T)[sp].d(T)[sp].[moe](A)p.[moe](G)p.[moe]([m5C])[sp].[moe]([m5C])}$$$$ (last 3' nucleoside missing)
The 3 h FOB score of the first is higher: 4 score 0-7 for the first, 2 score 0-7 for the second.

Compared with “RNA1{[moe]([m5C])[sp].[moe](T)p.[moe](A)p.[moe](G)p.d(T)[sp].d([m5C])[sp].d(A)[sp].d(G)[sp].d([m5C])[sp].d([m5C])[sp].d(T)[sp].d(G)[sp].d(G)[sp].d(T)[sp].[moe](T)p.[moe](A)p.[moe](G)p.[moe]([m5C])[sp].[moe]([m5C])}$$$$ (last 3' nucleoside missing)”, “RNA1{[moe]([m5C])[sp].[moe](T)p.[moe](G)p.[moe]([m5C])p.[moe](T)[sp].d([m5C])[sp].d(T)[sp].d(T)[sp].d(T)[sp].d([m5C])[sp].d([m5C])[sp].d([m5C])[sp].d(T)[sp].d([m5C])[sp].d(A)[sp].[moe]([m5C])p.[moe](T)p.[moe](T)[sp].[moe](T)}$$$$ (last 3' nucleoside missing)” is lower in 3 h FOB score: 4 score 0-7 for the first, 0 score 0-7 for the second.

“RNA1{[moe]([m5C])[sp].[moe](T)p.[moe](G)p.[moe]([m5C])p.[moe]([m5C])[sp].d(A)[sp].d(T)[sp].d(T)[sp].d(T)[sp].d(A)[sp].d(T)[sp].d([m5C])[sp].d(T)[sp].[moe](G)p.[moe](T)p.[moe](G)[sp].[moe]([m5C])}$$$$ (last 3' nucleoside missing)” and “RNA1{[moe]([m5C])[sp].[moe](T)p.[moe](G)p.[moe]([m5C])p.[moe]([m5C])p.[moe](A)p.d(T)[sp].d(T)[sp].d(T)[sp].d(A)[sp].d(T)[sp].d([m5C])[sp].d(T)[sp].d(G)[sp].d(T)[sp].d(G)[sp].[moe]([m5C])p.[moe](T)[sp].[moe](T)}$$$$ (last 3' nucleoside missing)” are the same in 3 h FOB score: 1 score 0-7 for the first, 1 score 0-7 for the second.

Compared with “RNA1{[moe]([m5C])[sp].[moe](T)p.[moe](G)p.[moe]([m5C])p.[moe]([m5C])p.d(A)[sp].d(T)[sp].d(T)[sp].d(T)[sp].d(A)[sp].d(T)[sp].d([m5C])[sp].d(T)[sp].d(G)[sp].d(T)[sp].[moe](G)p.[moe]([m5C])p.[moe](T)[sp].[moe](T)}$$$$ (last 3' nucleoside missing)”, “RNA1{[moe]([m5C])[sp].[moe](T)p.[moe](T)p.[moe](G)p.[moe](G)[sp].d(A)[sp].d([m5C])[sp].d(T)[sp].d([m5C])[sp].d([m5C])[sp].d(T)[sp].d(T)[sp].d(A)[sp].d(A)[sp].d(T)[sp].[moe](G)p.[moe](A)p.[moe]([m5C])[sp].[moe]([m5C])}$$$$ (last 3' nucleoside missing)” is lower in 3 h FOB score: 2 score 0-7 for the first, 0 score 0-7 for the second.

Compared with “RNA1{[moe]([m5C])[sp].[moe](T)p.[moe](T)p.[moe](G)p.[moe](T)p.d(G)[sp].d(A)[sp].d(T)[sp].d(T)[sp].d(T)[sp].d(T)[sp].d([m5C])[sp].d([m5C])[sp].d([m5C])[sp].d([m5C])[sp].[moe](G)p.[moe](T)p.[moe]([m5C])[sp].[moe](T)}$$$$ (last 3' nucleoside missing)”, “RNA1{[moe]([m5C])[sp].[moe](T)p.[moe](T)p.[moe](G)p.d(T)[sp].d(G)[sp].d(A)[sp].d(T)[sp].d(T)[sp].d(T)[sp].d(T)[sp].d([m5C])[sp].d([m5C])[sp].d([m5C])[sp].[moe]([m5C])p.[moe](G)p.[moe](T)p.[moe]([m5C])[sp].[moe](T)}$$$$ (last 3' nucleoside missing)” is lower in 3 h FOB score: 3 score 0-7 for the first, 0 score 0-7 for the second.

First: RNA1{[moe]([m5C])[sp].[moe](T)p.[moe](T)p.[moe](T)p.[moe](A)[sp].d(T)[sp].d(T)[sp].d(T)[sp].d(T)[sp].d(T)[sp].d([m5C])[sp].d([m5C])[sp].d(T)[sp].[moe]([m5C])p.[moe](A)p.[moe](G)[sp].[moe]([m5C])}$$$$ (last 3' nucleoside missing)
Second: RNA1{[moe]([m5C])[sp].[moe](T)p.[moe](T)p.[moe](T)p.[moe](A)[sp].d(T)[sp].d(T)[sp].d(T)[sp].d(T)[sp].d(T)[sp].d([m5C])[sp].d([m5C])[sp].d(T)[sp].d([m5C])[sp].d(A)[sp].[moe](G)p.[moe]([m5C])p.[moe](G)[sp].[moe](A)}$$$$ (last 3' nucleoside missing)
The 3 h FOB score of the first is higher: 4 score 0-7 for the first, 0 score 0-7 for the second.
